Test results taken from the supplement of paper PMC10307832.

Columns and labels:
Test in all cases: relative viability (nuclei count vs DMSO), 5 days (fraction); higher = more cells survive
Veliparib + Phenformin = compound: C[C@]1(c2nc3c(C(N)=O)cccc3[nH]2)CCCN1 [Veliparib] + N=C(N)NC(=N)NCCc1ccccc1 [Phenformin] (partner 250 µM)
Procedure, shortened: (§1)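 A single step with final 0.05% Triton X-100, 1% formaldehyde and 1 ug/ml Hoechst fixed the cells and stained nuclei 5 days after treatment. Lung cancer cell lines in 1536-well plates had been treated by pin tool the day after seeding with one drug alone or a fixed anchor-drug dose plus five library-drug doses (not always all listed) in √10 steps, and nuclei were counted on 4× images. Relative viability is the ratio of nuclei in treated wells to nuclei in vehicle wells, taken as the median of duplicate plates.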

[1] = compound: COC1=CC=C(C=C1)CN2C=CC3=C2C=C(C=C3)C(=O)NO + Cc1nc(Nc2ncc(C(=O)Nc3c(C)cccc3Cl)s2)cc(N2CCN(CCO)CC2)n1 [Dasatinib] (partner 0.075 µM)
Procedure, shortened: as §1

[2] = compound: COC1=CC=C(C=C1)CN2C=CC3=C2C=C(C=C3)C(=O)NO + COc1cccc2cc(-c3nc([C@H]4CC[C@H](C(=O)O)CC4)n4ncnc(N)c34)[nH]c12 [OSI-027] (partner 0.5 µM)
Procedure, shortened: as §1

[3] = compound: COC1=CC=C(C=C1)CN2C=CC3=C2C=C(C=C3)C(=O)NO + Cc1cc(Nc2cc(N3CCN(C)CC3)nc(Sc3ccc(NC(=O)C4CC4)cc3)n2)n[nH]1 [Tozasertib] (partner 0.1 µM)
Procedure, shortened: as §1

[4] = compound: COC1=CC=C(C=C1)CN2C=CC3=C2C=C(C=C3)C(=O)NO + CCNC(=O)c1noc(-c2cc(C(C)C)c(O)cc2O)c1-c1ccc(CN2CCOCC2)cc1 [Luminespib] (partner 0.01 µM)
Procedure, shortened: as §1

For SW 1573, the relative viability (Veliparib + Phenformin; first compound 0.06325 µM) was 0.32, the relative viability (Veliparib + Phenformin; first compound 0.2 µM) was 0.419 and the relative viability (Veliparib + Phenformin; first compound 0.6325 µM) was 0.324. For the same cell line, the relative viability (Veliparib + Phenformin; first compound 2 µM) was 0.4, the relative viability ([1]; first compound 0.253 µM) was 0.545 and the relative viability ([1]; first compound 0.8 µM) was 0.702. The relative viability ([1]; first compound 2.53 µM) was 0.561, the relative viability ([1]; first compound 8 µM) was 0.322 and the relative viability ([2]; first compound 0.253 µM) was 0.616. It also gave a relative viability ([2]; first compound 0.8 µM) of 0.785, a relative viability ([2]; first compound 2.53 µM) of 0.519 and a relative viability ([2]; first compound 8 µM) of 0.396. For the same cell line, the relative viability ([3]; first compound 0.253 µM) was 0.233, the relative viability ([3]; first compound 0.8 µM) was 0.188 and the relative viability ([3]; first compound 2.53 µM) was 0.206. The relative viability ([3]; first compound 8 µM) was 0.157, the relative viability ([4]; first compound 0.253 µM) was 0.522 and the relative viability ([4]; first compound 0.8 µM) was 0.279. The relative viability ([4]; first compound 2.53 µM) was 0.298 and the relative viability ([4]; first compound 8 µM) was 0.491.
